For one assay, the target named is T1, NPR-10B (Caenorhabditis elegans, UniProt Q6EUU1).
T1 sequence (Q6EUU1 1-362): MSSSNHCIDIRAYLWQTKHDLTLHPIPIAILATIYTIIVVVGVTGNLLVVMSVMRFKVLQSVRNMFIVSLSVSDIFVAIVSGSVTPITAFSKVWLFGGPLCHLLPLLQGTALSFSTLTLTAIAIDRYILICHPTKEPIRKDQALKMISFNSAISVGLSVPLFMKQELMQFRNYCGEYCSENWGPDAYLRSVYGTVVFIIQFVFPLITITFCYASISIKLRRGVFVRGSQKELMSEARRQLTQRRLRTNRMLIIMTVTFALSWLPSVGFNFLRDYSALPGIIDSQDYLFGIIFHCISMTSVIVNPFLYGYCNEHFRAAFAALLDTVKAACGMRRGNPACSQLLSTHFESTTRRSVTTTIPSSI
As to the kind of experiment: In vitro GPCR activation assay (CHO-K1 cells, aequorin, human Gα16), NPR-10B. In kind it is cell-based, C. elegans. The note with it: for EC50: title: NPR-10B, calcium/aequorin luminescence in transfected CHO-K1 cells; for activation of NPR-10 (NPR-10B): in words. Here is the method: Using Chinese hamster ovarian (CHO) cell cultures stably expressing the promiscuous G protein, Gα16, and the calcium reporter, aequorin, it was observed that both isoforms of NPR-10 are activated by seven of the ten FLP-3 peptides, with half-maximal effective concentrations (EC50) in the nM range (FIG. 14A-FIG. 14H, Table V). […] This peptide contains an R-to-K mutation within the C-terminal motif, which may explain the lack of receptor activation.
(§1) The GPCR activation assay was performed as previously described Van Sinay, E. et al. Proc. Natl Acad. Sci. USA 114, E4065-e4074 (2017) and Peymen, K. et al. PLoS Genet. 15, e1007945 (2019). Briefly, npr-10 and frpr-16 cDNAs were cloned into the pcDNA3.1 TOPO expression vector (Thermo Fisher Scientific). A CHO-K1 cell line (PerkinElmer, ES-000-A24) stably expressing apo-aequorin targeted to the mitochondria (mtAEQ) and human Gα16 was transiently transfected with the receptor cDNA construct or the empty pcDNA3.1 vector using Lipofectamine LTX and Plus reagent (Thermo Fisher Scientific). Cells were shifted to 28° C. one day later and allowed to incubate for 24 h. On the day of the assay, cells were collected in BSA medium (DMEM/Ham's F12 with 15 mM HEPES, without phenol red, 0.1% BSA) and loaded with […] coelenterazine h (Thermo Fisher Scientific) for 4 h at room temperature. The incubated cells were then added to synthetic peptides dissolved in DMEM/BSA, and luminescence was measured for 30 s at […] using a Mithras LB940 (Berthold Technologies) or MicroBeta LumiJet luminometer (PerkinElmer). After 30 s of readout, 0.1% triton X-100 was added to lyse the cells, resulting in a maximal calcium response that was measured for 10 s. After initial screening, concentration-response curves were constructed for HPLC-purified FLP-3 peptides by subjecting the transfected cells to each peptide in a concentration range from 1 pM to 10 μM. Cells transfected with an empty vector were used as a negative control. Assays were performed in triplicate on at least two independent days. Concentration-response curves were fitted using Prism v. 7 (nonlinear regression analysis with a sigmoidal concentration-response equation).

The target in another assay is T2, FRPR-16 (Caenorhabditis elegans, UniProt Q21957).
T2 sequence (Q21957 1-340): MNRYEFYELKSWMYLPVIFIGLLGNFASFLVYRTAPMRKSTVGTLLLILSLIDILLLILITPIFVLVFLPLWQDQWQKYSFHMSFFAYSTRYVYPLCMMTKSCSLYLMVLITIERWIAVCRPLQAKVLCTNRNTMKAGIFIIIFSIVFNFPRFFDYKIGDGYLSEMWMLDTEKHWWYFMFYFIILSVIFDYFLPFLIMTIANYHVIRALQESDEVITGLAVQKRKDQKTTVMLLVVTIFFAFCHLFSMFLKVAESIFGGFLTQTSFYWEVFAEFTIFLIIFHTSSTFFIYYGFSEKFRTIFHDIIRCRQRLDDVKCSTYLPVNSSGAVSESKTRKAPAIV
Description: In vitro GPCR activation assay (CHO-K1 cells, aequorin, human Gα16), FRPR-16. The conditions noted are these: for EC50: calcium/aequorin luminescence in transfected CHO-K1 cells; for activation of FRPR-16: in words. The class given is cell-based, C. elegans. Here is the method: as §1

The test system of another assay is flp-3 lof males. As to the kind of experiment: Drop avoidance assay to ascr #8 after FLP-3 peptide rescue-by-feeding. In kind it is in vivo, C. elegans. The conditions noted are these: flp-3 lof males raised on peptide; 1 μM ascr #8; in words. As to the method:
To identify which FLP-3 peptides are required for male avoidance of ascr #8, a peptide feeding approach https://www.nature.com/articles/s42003-021-02547-7-ref-CR59 was adopted, similar to RNAi feeding (FIG. 16A). Using Gateway Cloning technology, FLP-3 peptide coding sequences were inserted into a bacterial expression vector. As a control, first the FLP-3 peptides were tested that are still encoded in the ok3625 allele which are insufficient to drive the proper ascr #8 response in vivo: FLP-3-1 (SPLGTMRFamide) (SEQ ID NO: 10) and FLP-3-4 (NPLGTMRFamide) (SEQ ID NO: 11). Then flp-3 lof animals were reared on lawns of bacteria expressing the rescue constructs, and their progeny were assayed for avoidance (FIG. 16B-FIG. 16D).
Assays were performed as described previously in Chute, C. D. & Srinivasan, J. Semin. Cell Dev. Biol. 33, 18-24 (2014); Chute, C. D. et al. Nat. Commun. 10, 3186 (2019); and Hilliard, M. A. et al., EMBO J. 23, 1101-1111 (2004). Fifty to sixty L4 worms were segregated by sex and stored at 20° C. for 5 h to overnight to be assayed as young adults. One to four hours prior to the assay, the lids of unseeded plates were tilted to allow any excess moisture to evaporate off the plates. At the time of the assay, 10 or more animals were transferred onto each of the dried, unseeded plates. A drop of either water or 1 μM ascr #8 was placed on the tail of forward moving animals, and their response was scored as either an avoidance response, or no response. The total number of avoidances was divided by the total number of drops to generate an avoidance index for that plate. This was repeated for at least 10 plates over at least three different days.
SCRAMBLE control or FLP-3 peptide constructs were grown overnight in LB media containing […] ampicillin at 37° C. and diluted to an OD600 of 1.0 prior to seeding on NGM plates containing […] ampicillin and 1 mM IPTG. The 75 μL lawn was left to dry and grow overnight at room temperature before three L4 animals were placed on the plates. Males were selected for testing in the same manner as described above but were isolated onto plates also seeded with the same peptide on which they had been reared. Animals were then assayed using either the avoidance assay or single worm assay.

The test system of a further assay is him-5 and pdf-1 males. Description: Excursion (food-leaving) assay after rescue-by-feeding. The class given is in vivo, C. elegans. The conditions noted are these: for PL (confidence interval): Probability of Leaving per hour, beyond 35 mm from food. The text has this: We quantified the behavioral activity of pdf-1 lof males using a food-leaving behavior as previously described. Individuals were placed on a small food spot, and track patterns were scored at three different time points (2, 6, 24 hrs) (FIG. 4A). “Never left food” indicate the absence of tracks outside the food spot. […] “Major excursion” indicates the presence of tracks past the 1 cm boundary (FIG. 1B, Excursion Assay). The food-leaving behavior was quantified as a measure of mate-searching behavior. In this behavior well-fed males left food in search of mates and the data is represented as a Probability of Leaving (PL) (FIG. 7A).
The mate searching behavior of pdf-1 mutants was quantified in a food leaving assay. him-5 animals were used as wild-type control to ensure the presence of males. him-5 and pdf-1 animals were fed OP50, scramble peptide, PDF-1A, PDF-1B, or a 1:1 mixture of PDF-1A and PDF-1B cultures. Four to six larval L4 hermaphrodites were passed onto an NGM plate containing […] AMP and 1 mM IPTG with 75 μL of peptide. These worms were grown at 20° C. for about 4 days until the male progeny of the initial L4 worms were young adults. The day prior to the assay, young adult male pdf-1 or him-5 worms were singled onto 60 mm plates containing lawns of either OP50 (NGM plates) or appropriate peptide cultures (NGM containing […] AMP and 1 mM IPTG). To determine the mate searching effects of pdf-1, we performed a food-leaving assay as described previously in Barrios, A., et al., Nat Neurosci 15, 1675-1682 (2012); Lipton, J., et al., The Journal of neuroscience: the official journal of the Society for Neuroscience 24, 7427-7434 (2004); Ryan, D. A. et al. Curr Biol 24, 2509-2517 (2014), with modifications. In this assay, individuals were placed on a small food spot, and track patterns were scored at the indicated times. Assay plates were prepared one day prior to assaying on 100 mm plates with 10 mL of Leaving Assay media (25 mM KPO4 (pH 6.0), 1 mM MgSO4, 1 mM CaCl2), 50 mM NaCl, 2.5 g/L Peptone, 17 g/L Agar). On center of plate, 7 μL of OP50 was added. Plates were lightly covered and stored at room temperature overnight (˜20° C., <40% humidity).
On the day of the assay, a single male was plated on the assay plate and placed in a dark, 20° C. incubator. At 2, 6, and 24 hours after the worms are plated, plates were scored for male worm tracks. Scored were separated into binned ranges. “Never left food” indicates the absence of tracks outside the food spot. […] “Major excursion” indicates the presence of tracks past the 1 cm boundary. The food leaving behavior was quantified at three different time points (2, 6, and 24 hours). (FIG. 4A, FIG. 7A, Table IV).
The mate searching defect of pdf-1 was quantified as a Probability of Leaving per hour (PL) (FIG. 4B, FIG. 7B).
The assay was performed across at least two days per condition, with at least n=50, wherein each assay plate with one male is equal to n=1. In all experiments, the investigators were blinded to genotype. Worm in the >35 mm from the center of food bin were scored as “leavers”. The probability of leaving per hour (Probability of Leaving (PL)) was calculated using an R script developed in Barrios et al., with assistance by (Personal Communications to Barrios, 2020). PL was calculated by the “hazard obtained by fitting an exponential parametric survival model to the censored data using maximum likelihood” (Table IV). The PLh-1 values for all pdf-1 animals fed scramble or peptide rescue were compared to him-5 worms fed scramble using an ANOVA followed by Bonferroni's multiple comparison (FIG. 4B, FIG. 7C).

Results on nine substances are retold here after patent publication US20220380430A1, “Non-Transgenic Functional Rescue of Neuropeptides” (Worcester Polytechnic Institute, priority 2021, published 2022).

“Also recorded” adds a separate entry of the source. No end group written: not given here.

With “ASEDALFGTMRF-NH2 [FLP-3-5, ASEDALFGTMRFamide]”, the results for the EC50 on NPR-10B and on FRPR-16 were 1100 nM and 72.1 nM, respectively.
For “EAEEPLGTMRF-NH2 [FLP-3-3, EAEEPLGTMRFamide]”, the concentration giving a half-maximal response (EC50) on NPR-10B is 867 nM; on FRPR-16, 288 nM.
On to “EDGNAPFGTMKFamide (EDGNAPFGTMKF-NH2) [FLP-3-6]”, for which the “activation of NPR-10 (NPR-10B)” value in the assay with NPR-10B is “did not activate NPR-10; also recorded: did not activate either receptor”. In addition, the “activation of FRPR-16” value in the assay with FRPR-16 was “did not activate FRPR-16; also recorded: did not activate either receptor”.
For the substance NPLGTMRF-NH2 [FLP-3-4, NPLGTMRFamide], the EC50 at NPR-10B turned out to be 427 nM; on FRPR-16, 10.7 nM. The “rescue of avoidance phenotype to ascr #8 (Avoidance Index)” value (from here on “rescue … (Avoidance Index)”) in the assay on flp-3 lof males is listed as “unable to rescue the avoidance phenotype on their own”.
Take “SAEPFGTMRF-NH2 [FLP-3-7, SAEPFGTMRFamide]”: the concentration giving a half-maximal response (EC50) at NPR-10B was determined as 439 nM; on FRPR-16 it was 39.5 nM.
Turning to SNAELINGLIGMDLGKLSAVG-NH2 [PDF-1A], the “PL (confidence interval)” value in the assay with him-5 and pdf-1 males (him-5 males) is reported as 0.06979 (0.05892, 0.08269); with him-5 and pdf-1 males (pdf-1 males), 0.03287 (0.02657, 0.04224).
SNAELINGLLSMNLNKLSGAG-NH2 [PDF-1B]: the “PL (confidence interval)” value in the assay with him-5 and pdf-1 males (him-5 males) is reported as 0.08712 (0.0754, 0.1007); in the assay with him-5 and pdf-1 males (pdf-1 males) it was 0.05821 (0.04761, 0.07118). The “Probability of Leaving, comparison in words” value in the assay on him-5 and pdf-1 males (pdf-1 lof males fed peptide) is “significantly different PL from pdf-1 males fed PDF-1A alone”. In the assay on him-5 and pdf-1 males (pdf-1 lof males, 2, 6, 24 hrs), the “rescue of food-leaving behavior (percent of males leaving food)” value was “complete rescue of food-leaving behavior”.
As for SPLGTMRF-NH2 [FLP-3-1, SPLGTMRFamide], the 50% effective concentration (EC50) was found to be 262 nM at NPR-10B and 7.4 nM on FRPR-16. Besides, the “rescue … (Avoidance Index)” value with flp-3 lof males is “unable to rescue the avoidance phenotype on their own”.
Consider STVDSSEPVIRDQ [FLP-3-10], for which the “activation of NPR-10 (NPR-10B)” value with NPR-10B is on record as “failed to activate the receptor; also recorded: did not activate either receptor”. Also, in the assay with FRPR-16, the “activation of FRPR-16” value is recorded as “did not activate FRPR-16; also recorded: did not activate either receptor”. Moreover, in the assay with flp-3 lof males, the “rescue … (Avoidance Index)” value is “unable to rescue the avoidance phenotype”.
